Results from ChEMBL document CHEMBL5528004, “Development of a new class of potent and highly selective G protein-coupled receptor kinase 5 inhibitors and structural insight from crystal structures of inhibitor complexes” (Eur J Med Chem, 2024).

Legend:
[1] = molecular target: T1, Beta-adrenergic receptor kinase 1 (Bos taurus, UniProt P21146); assay: Inhibition of bovine GRK2 expressed in baculovirus infected insect cell using tubulin as substrate incubated for 5 mins in presence of [gamma-32P]-ATP by radiometric assay
T1 sequence (P21146 whole entry): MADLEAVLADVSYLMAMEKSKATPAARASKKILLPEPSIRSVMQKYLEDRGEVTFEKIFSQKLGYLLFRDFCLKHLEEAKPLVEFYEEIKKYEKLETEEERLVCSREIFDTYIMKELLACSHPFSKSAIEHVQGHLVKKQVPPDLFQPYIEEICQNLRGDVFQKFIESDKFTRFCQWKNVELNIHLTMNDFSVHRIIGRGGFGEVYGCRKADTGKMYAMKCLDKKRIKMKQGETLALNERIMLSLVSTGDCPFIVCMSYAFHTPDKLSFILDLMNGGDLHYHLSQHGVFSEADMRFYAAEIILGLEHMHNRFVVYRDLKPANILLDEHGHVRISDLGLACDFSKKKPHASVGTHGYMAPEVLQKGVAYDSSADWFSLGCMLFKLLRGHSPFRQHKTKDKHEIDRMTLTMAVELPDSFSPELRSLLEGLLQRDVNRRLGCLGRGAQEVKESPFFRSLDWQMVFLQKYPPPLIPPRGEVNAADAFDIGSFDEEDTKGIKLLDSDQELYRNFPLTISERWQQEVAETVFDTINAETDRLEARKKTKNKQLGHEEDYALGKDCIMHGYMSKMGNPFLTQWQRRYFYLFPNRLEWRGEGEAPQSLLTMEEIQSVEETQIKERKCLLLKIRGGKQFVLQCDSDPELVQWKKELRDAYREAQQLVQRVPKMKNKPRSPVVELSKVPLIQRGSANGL

[2] = molecular target: G protein-coupled receptor kinase 5 (Homo sapiens, UniProt P34947); assay: Inhibition of human GRK5 (1 to 590) expressed in Escherichia coli using tubulin as substrate incubated for 5 mins in presence of [gamma-32P]-ATP by radiometric assay
G protein-coupled receptor kinase 5, sequence (P34947 whole entry): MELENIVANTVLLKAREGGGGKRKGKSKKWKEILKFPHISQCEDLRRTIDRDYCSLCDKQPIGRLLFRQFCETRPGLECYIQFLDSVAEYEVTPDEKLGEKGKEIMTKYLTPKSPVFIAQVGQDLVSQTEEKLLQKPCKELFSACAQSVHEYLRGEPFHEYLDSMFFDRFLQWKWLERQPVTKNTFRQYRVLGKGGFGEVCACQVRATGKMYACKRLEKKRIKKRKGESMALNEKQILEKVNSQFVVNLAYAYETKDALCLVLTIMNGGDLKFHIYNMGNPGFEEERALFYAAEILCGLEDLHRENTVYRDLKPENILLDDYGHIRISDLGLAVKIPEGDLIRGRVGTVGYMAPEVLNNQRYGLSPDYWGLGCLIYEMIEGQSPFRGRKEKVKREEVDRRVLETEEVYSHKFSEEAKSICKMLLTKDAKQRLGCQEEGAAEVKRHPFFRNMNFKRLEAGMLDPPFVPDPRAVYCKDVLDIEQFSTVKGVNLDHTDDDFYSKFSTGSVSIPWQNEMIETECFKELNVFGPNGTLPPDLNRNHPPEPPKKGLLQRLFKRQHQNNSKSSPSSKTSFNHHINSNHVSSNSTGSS

[3] = Selectivity index, ratio of IC50 for inhibition of bovine GRK2 to IC50 for inhibition of human GRK5

IC50 [1] | IC50 [2] | Ratio IC50 [3] | Structure (SMILES)
100 µM |  |  | Cc1[nH]c(/C=C2\C(=O)Nc3ccc(C(=O)N[C@H](C)c4ccc(F)cc4)cc32)c(C)c1NC(=O)[C@H](C)O
200 µM |  |  | CC(=O)C(=O)Nc1c(C)[nH]c(/C=C2\C(=O)Nc3ccc(C(=O)N[C@H](C)c4ccc(F)cc4)cc32)c1C
2.2 µM |  |  | Cc1[nH]c(/C=C2\C(=O)Nc3ccc(C(=O)NCc4ccc(F)cc4)cc32)c(C)c1NC(=O)[C@@H](O)c1ccco1
30 µM |  |  | Cc1[nH]c(/C=C2\C(=O)Nc3ccc(C(=O)NCc4ccc(F)cc4)cc32)c(C)c1NC(=O)[C@H](O)c1ccccc1
90 µM |  |  | Cc1[nH]c(/C=C2\C(=O)Nc3ccc(C(=O)N[C@H](C)c4ccc(F)cc4)cc32)c(C)c1NC(=O)[C@@H](O)c1ccccc1
600 µM |  |  | Cc1[nH]c(/C=C2\C(=O)Nc3ccc(C(=O)N[C@H](C)c4ccc(F)cc4)cc32)c(C)c1NC(=O)[C@@H](C)O
> 1000 µM | 1.1 µM | 900 | Cc1[nH]c(/C=C2\C(=O)Nc3ccc(C(=O)N[C@H](C)c4ccc(F)cc4)cc32)c(C)c1NC(=O)C(=O)c1ccccc1

Structure (SMILES) | IC50 [1] | IC50 [2] | Ratio IC50 [3]
Cc1[nH]c(/C=C2\C(=O)Nc3ccc(C(=O)N[C@H](C)c4ccc(F)cc4)cc32)c(C)c1NC(=O)C(=O)c1ccco1 | > 1000 µM |  | 
